From patent US9238033B2, “Pharmaceutical composition containing KW-6002 and fluoxetine or paroxentine” (Kyowa Hakko Kirin Co., Ltd., priority 2003, dated 2016)
Where a name gives a salt, the structure may show the parent alone.

Experiments:
ddY male mice = test: Forced swimming method in mice (animal model of depression); format: in vivo; settings: for Duration of immobility (sec) Mean value ± Standard error: last 4 min of 6 min test, Not Significant (Dunnett test); for Rate of change of duration of immobility to solvent control group (%): solvent control = 100%
Method: The test was carried out with reference to the method of Porsolt et al., [Arch. Int. Pharmacodyn. Ther., 229, 327-336 (1977)], which is an animal model of depression.
Experiment was conducted using 10 ddY male mice (weighing 20 to 35 g, Nihon SLC Co., Ltd) per one group.
An acrylic transparent cylinder having a diameter of 10 cm and a height of 25 cm was filled with water having a temperature of about 24° C. Height from the bottom of the cylinder to the surface of the water was adjusted to be about 9 cm.
The mice were forced to swim individually for a period of 6 minutes, the total duration of immobility during the last 4 minutes of 6 minutes test was measured (significance test: Dunnett test).
The antidepressant drug and Compound (I) were suspended in distilled water for injection (manufactured by Otsuka Pharmaceutical Co., Ltd.) containing 0.5% MC (methyl cellulose), respectively, for use in the test. Time point of administration of the antidepressant drug was predetermined such that the peak of onset of activity by the antidepressant drug overlaps with the peak of onset of activity by Compound (I). According to the predetermined time, the suspension containing the antidepressant drug was orally administered to a group administered the antidepressant drug alone or a group administered the antidepressant drug and Compound (I) in combination (0.1 mL per 10 g of the mouse body weight). Further, the suspension containing Compound (I) was orally administered to the group administered the antidepressant drug and Compound (I) in combination, 1 hour before the test (0.1 mL per 10 g of the mouse body weight). A solution without containing a test compound [distilled water for injection (manufactured by Otsuka Pharmaceutical Co., Ltd.) containing 0.5% MC] and the suspension containing Compound (I) were orally administered to a solvent control group and to a group administered Compound (I) alone, 1 hour before the test, respectively (0.1 mL per 10 g of the mouse body weight).
(§1) Effect obtained by combining Compound (I) and the antidepressant drug was evaluated according to the following index.
(§2) The duration of Immobility in the solvent control group was assumed to be 100%, and each rate of change (%) of the duration of, immobility in the above administration group to the duration of immobility in the solvent control group was calculated, and was compared. The duration of immobility in each administration group, and the rate of change (%) of the duration of immobility are shown in Table 1.

ICR male mice = test: Mouse tail suspension method (animal model of depression); format: in vivo; settings: for Duration of immobility (sec) Mean value ± Standard error: last 4 min of 6 min test, Not Significant (Student's t test); for Rate of change of duration of immobility to solvent control group (%): solvent control = 100%
Method: The test was carried out with reference to the method of Steru et al., [Psychopharmacol., 85, 367-370 (1985)], which is an animal model of depression.
Experiment was conducted using 10 ICR male mice (weighing 20 to 35 g, Nihon SLC Co., Ltd) per one group.
An acrylic or metallic bat was fixed horizontally such that height of about 60 cm from the floor face is provided.
The mouse was suspended at a site of about 2 cm from the tip of the tail, from the bar for a period of 6 minutes. Duration of immobility during the last 4 minutes of 6 minutes test was measured (significance test: Student's t test). For fixing the mouse, an adhesive tape was used.
The antidepressant drug and Compound (I) were suspended in distilled water for injection (manufactured by Otsuka Pharmaceutical Co., Ltd.) containing 0.5% MC (methyl cellulose), respectively, for use in the test. Time point of administration of the antidepressant drug was predetermined such that the peak of onset of activity by the antidepressant drug overlaps with the peak of onset of activity by Compound (I). According to the predetermined time, the suspension containing the antidepressant drug was orally administered to a group administered the antidepressant drug alone or a group administered the antidepressant drug and Compound (I) in combination (0.1 mL per 10 g of the mouse body weight). Further, the suspension containing Compound (I) was orally administered to the group administered the antidepressant drug and Compound (I) in combination, 1 hour before the test (0.1 mL per […] of the mouse body weight). A solution without containing a test compound [distilled water for injection (manufactured by Otsuka Pharmaceutical Co., Ltd.) containing 0.5% MC] and the suspension containing Compound (I) were orally administered to a solvent control group and to a group administered Compound (I) alone, 1 hour before the test, respectively (0.1 mL per 10 g of the mouse body weight).
as §1
as §2, with “of” for “of,”, “2 and Table 3.” for “1.”

[1] = Venlafaxine hydrochloride 5.00 mg/kg orally
[2] = Compound (I) 0.08 mg/kg orally 1 hour before test
[3] = Table 2, Compound (I) 0.04 mg/kg orally 1 hour before test
[4] = Table 3, Compound (I) 0.04 mg/kg orally 1 hour before test
[5] = Table 3, fluoxetine hydrochloride 10.00 mg/kg orally
[6] = Table 2, paroxetine hydrochloride hydrate 2.50 mg/kg orally

`COc1ccc(C(CN(C)C)C2(O)CCCCC2)cc1` (stereo not drawn) [Venlafaxine hydrochloride] was tested, and the “Duration of immobility (sec) Mean value ± Standard error” value (ddY male mice; [1]) was 173.1 ± 20.7 s and the “Rate of change of duration of immobility to solvent control group (%)” value (“Rate of change of duration of immobility … (%)” below) (ddY male mice; [1]) was −12%.

For `CCn1c(=O)c2c(nc(/C=C/c3ccc(OC)c(OC)c3)n2C)n(CC)c1=O` [Compound (I), (E)-8-(3,4-dimethoxystyryl)-1,3-diethyl-7-methyl-3,7-dihydro-1H-purine-2,6-dione], the “Duration of immobility (sec) Mean value ± Standard error” value (ddY male mice; [2]) was 155.6 ± 13.3 s, the “Rate of change of duration of immobility … (%)” value (ddY male mice; [2]) was −21% and the “Duration of immobility (sec) Mean value ± Standard error” value (ICR male mice; [3]) was 70.1 ± 19.1 s. The “Rate of change of duration of immobility … (%)” value (ICR male mice; [3]) was −14%, the “Duration of immobility (sec) Mean value ± Standard error” value (ICR male mice; [4]) was 87.9 ± 14.9 s and the “Rate of change of duration of immobility … (%)” value (ICR male mice; [4]) was −26%.

For `CNCCC(Oc1ccc(C(F)(F)F)cc1)c1ccccc1` (stereo not drawn) [Fluoxetine hydrochloride], the “Duration of immobility (sec) Mean value ± Standard error” value (ICR male mice; [5]) was 85.7 ± 18.9 s and the “Rate of change of duration of immobility … (%)” value (ICR male mice; [5]) was −16%.

`Fc1ccc([C@@H]2CCNC[C@H]2COc2ccc3c(c2)OCO3)cc1` [Paroxetine hydrochloride hydrate] was tested, and the “Duration of immobility (sec) Mean value ± Standard error” value (ICR male mice; [6]) was 79.6 ± 16.6 s and the “Rate of change of duration of immobility … (%)” value (ICR male mice; [6]) was −2%.
